Earlier results as cited in patent US8911790B2, “Solid composition containing a hypothiocyanite salt” (Alaxia SAS, priority 2011, dated 2014).

Conditions: hypothiocyanite ion, instability of the species

- half-life: less than 24 hours
SMILES: N#CSO [hypothiocyanite ion, hypothiocyanite]
